pKi: −log10 of the molar value. Where two headings read alike, the source gives them in different places.
Experiments:
[1] = system: A549 non-small cell lung cancer cell line; test: Proliferation of A549 (CellTiter Glo); assay type: cell-based; details: read-out: IC50 μM (A549 Cell Line)
Method: The diterpenoid compounds were tested in A549, a non-small cell lung cancer cell line harboring a K-Ras activating mutation. Briefly, A549 cells at a density of 1,000 cells/well were seeded in 96-well plates and incubated at 37° C. for 24 hours. A series of different concentrations of compound stocks (500×) were prepared by 3-fold serial dilution in DMSO. These compounds were further diluted in culture media and then added to cells so that the final DMSO concentration was not exceeding 0.25%. After 96 hours of incubation, 50 μL of CellTiter Glo reagent (Promega) was added to each well and luminescence was measured after 10 minutes using EnVision (PerkinElmer). Luminescence from cells treated with DMSO alone was set as Max and % of inhibition was calculated as follows: Inhibition %=(Max−Sample value)/Max×100. Data was analyzed using XL-fit software (ID Business Solutions Ltd.) and IC50, relative IC50, and % of top inhibition was calculated. Some of the compounds in this disclosure were very potent in blocking proliferation of A549 lung cancer cells at low nM range. In addition, potency of inhibiting A549 proliferation correlated well with its binding affinity to PKCs for this series of compounds. In other words, higher affinity binders had stronger inhibitory effects on A549 proliferation. This further support the notion that activation, rather than inhibition, of certain PKC isoforms is required to block proliferation of cancer cells, some of which may harbor K-Ras mutations. This is in sharp contrast to previous literature and common belief that inhibition of PKC is necessary to block cancer cell growth (Kang, 2014, New Journal of Science, 2014:1-36). Data presented here is in agreement with recent findings that many loss-of-function but not gain-of-function mutations of PKC isoforms have been identified in many human cancers (Antal et al., 2015, Cell, 160:489-502).

[2] = molecular target: T1, C1b domain of human PKCα (Homo sapiens, UniProt P17252); test: biochemical; assay type: binding; details: 3H-PDBu competition; for pKi: Ki PKCα
T1 construct: Genes encoding C1b domains of human PKCα, δ, ε, θ, and PKD1 (PKCμ) were synthesized; made in house; host or cells: E. coli BL21(DE3)
Method: (§1) Compounds described in this disclosure were tested for binding affinity to C1b domain of PKC isoforms. Compound binding affinity to C1b domain of PKC isoforms was derived from competitive binding assay using radioactive tracer ^3H-PDBu and recombinant GST-C1b or full-length of human PKC proteins based on modified procedures from Methods in Molecular Biology, vol.
(§2) Genes encoding C1b domains of human PKCα, δ, ε, θ, and PKD1 (PKCμ) were synthesized and inserted into pGEX-2TK or pGEX-4T1 vectors for expression and production of GST-C1b proteins in E. coli BL21(DE3) via IPTG induction. The target proteins were purified by glutathione sepharose 4B and followed by ion exchange chromatography if needed to achieve purity >70%. Aliquots of the purified proteins were stored at −80 degree for binding assay (storage buffer: 20 mM Tris pH 8.0, 200 mM NaCl, 10% glycerol, 1 mM DTT).
The plate was incubated at 37° C. on a shaker at 300 rpm for 10 minutes and then put on ice for 20 minutes. […] The bottom of the filter plate was sealed and 50 μL of MicroScint-20 (PerkinElmer) cocktail was added to each well. ^3H-PDBu trapped in each well was counted using PerkinElmer MicroBeta2 Reader. […] Kd is the binding affinity of each protein preparation to ^3H-PDBu, determined experimentally.

[3] = molecular target: T2, C1b domain of human PKD1 (PKCμ) (Homo sapiens, UniProt Q15139); test: biochemical; assay type: binding
T2 construct: Genes encoding C1b domains of human PKCα, δ, ε, θ, and PKD1 (PKCμ) were synthesized; made in house; host or cells: E. coli BL21(DE3)
T2 sequence (Q15139 270-320 limits assumed): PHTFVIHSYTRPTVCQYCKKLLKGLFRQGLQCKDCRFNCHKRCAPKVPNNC
Method: as §1, §2
(§3) The plate was incubated at 37° C. on a shaker at 300 rpm for 10 minutes and then put on ice for 20 minutes. […] The bottom of the filter plate was sealed and 50 μL of MicroScint-20 (PerkinElmer) cocktail was added to each well. ^3H-PDBu trapped in each well was counted using PerkinElmer MicroBeta2 Reader. Data were analyzed using GraphPad Prism5 with the model “log(inhibitor) vs. response-variable slope” to fit the IC50, and then IC50 was transformed to Ki using Cheng-Prusoff equation: Ki=IC50/(1+added radio ligand/Kd). Kd is the binding affinity of each protein preparation to ^3H-PDBu, determined experimentally.

[4] = molecular target: T3, C1b domain of human PKCδ (Homo sapiens, UniProt Q05655); test: Competitive 3H-PDBu binding to C1b domain of PKCδ; details: 3H-PDBu competition
T3 construct: Genes encoding C1b domains of human PKCα, δ, ε, θ, and PKD1 (PKCμ) were synthesized; made in house; host or cells: E. coli BL21(DE3)
T3 sequence (Q05655 230-280 limits assumed): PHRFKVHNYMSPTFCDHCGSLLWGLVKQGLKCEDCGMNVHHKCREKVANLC
Method: as §1, §2, §3

[5] = molecular target: T4, C1b domain of human PKCθ (Homo sapiens, UniProt Q04759); test: Competitive 3H-PDBu binding to C1b domain of PKCθ
T4 construct: Genes encoding C1b domains of human PKCα, δ, ε, θ, and PKD1 (PKCμ) were synthesized; made in house; host or cells: E. coli BL21(DE3)
T4 sequence (Q04759 231-281 limits assumed): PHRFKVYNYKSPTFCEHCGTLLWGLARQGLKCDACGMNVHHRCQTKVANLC
Method: as §1, §2, §3

[6] = molecular target: T5, C1b domain of human PKCε (Homo sapiens, UniProt Q02156); test: Competitive 3H-PDBu binding to C1b domain of PKCε
T5 construct: Genes encoding C1b domains of human PKCα, δ, ε, θ, and PKD1 (PKCμ) were synthesized; made in house; host or cells: E. coli BL21(DE3)
T5 sequence (Q02156 242-292 limits assumed): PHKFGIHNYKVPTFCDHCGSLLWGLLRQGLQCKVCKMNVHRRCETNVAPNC
Method: as §1, §2, §3

| SMILES | IC50 ([1]; Homo sapiens, A549, 96 h) [µM] | pKi [2] | pKi [3] | pKi ([4]; Ki PKCδ) | pKi [5] | Ki PKCα [2] | pKi [6] | IC50 ([1]; A549, 96 hours incubation, CellTiter Glo) [µM] | pKi ([3]; C1b domain of human PKD1 (PKCμ), 3H-PDBu competition, read-out: Ki PKD1/PKCμ) | pKi ([5]; C1b domain of human PKCθ, 3H-PDBu competition, read-out: Ki PKCθ) | pKi ([6]; C1b domain of human PKCε, 3H-PDBu competition, read-out: Ki PKCε) | pKi ([4]; read-out: Ki PKCδ) |
| --- | --- | --- | --- | --- | --- | --- | --- | --- | --- | --- | --- | --- |
| CC1=C[C@H]2[C@@]3(O)[C@H](C)C[C@]4(OC(=O)[C@@H](O)Cc5ccccc5)[C@H]([C@@H]3C=C(CO)C[C@]2(O)C1=O)C4(C)C [Compound K101-C1354] | 0.2 to 0.6 | 5.70 to 6.00 | 7.52 to 9.00 | 7.22 to 7.52 | – | – | – | – | – | – | – | – |
| CC1=C[C@H]2[C@@]3(O)[C@H](C)C[C@]4(OC(=O)C[C@@H](N)c5ccccc5)[C@H]([C@@H]3C=C(CO)C[C@]2(O)C1=O)C4(C)C [Compound K101-C1357] | 2 to 5 | < 5.10 | 7.22 to 7.52 | 6.40 to 6.70 | – | – | – | – | – | – | – | – |
| CC1=C[C@H]2[C@@]3(O)[C@H](C)C[C@]4(OC(=O)C[C@H](N)Cc5ccccc5)[C@H]([C@@H]3C=C(CO)C[C@]2(O)C1=O)C4(C)C [Compound K101-C1358] | 1 to 2 | 6.40 to 6.70 | 8.00 to 8.30 | 7.52 to 9.00 | – | – | – | – | – | – | – | – |
| CC1=C[C@H]2[C@@]3(O)[C@H](C)C[C@]4(OC(=O)[C@H](CC5CCCCC5)N(C)C)[C@H]([C@@H]3C=C(CO)C[C@]2(O)C1=O)C4(C)C [Compound K101-C1365] | 0.6 to 1 | 5.22 to 5.40 | 7.22 to 7.52 | 6.70 to 7.00 | – | – | – | – | – | – | – | – |
| CC1=C[C@H]2[C@@]3(O)[C@H](C)C[C@]4(OC(=O)[C@H](N)CCc5ccc(C(F)(F)F)cc5)[C@H]([C@@H]3C=C(CO)C[C@]2(O)C1=O)C4(C)C [Compound K101-C135601] | 0.2 to 0.6 | 5.70 to 6.00 | 7.52 to 9.00 | 7.22 to 7.52 | – | – | – | – | – | – | – | – |
| CC1=C[C@H]2[C@@]3(O)[C@H](C)C[C@]4(OC(=O)[C@H](N)CCCCCCc5ccc(C(F)(F)F)cc5)[C@H]([C@@H]3C=C(CO)C[C@]2(O)C1=O)C4(C)C [Compound K101-C135901] | 0.06 to 0.1 | 5.70 to 6.00 | 7.52 to 9.00 | 7.22 to 7.52 | 7.22 to 7.52 | – | – | – | – | – | – | – |
| CC1=C[C@H]2[C@@]3(O)[C@H](C)C[C@]4(OC(=O)[C@@H](N)CCCCCCc5ccc(C(F)(F)F)cc5)[C@H]([C@@H]3C=C(CO)C[C@]2(O)C1=O)C4(C)C [Compound K101-C135902] | 0.01 to 0.03 | – | 8.00 to 8.30 | 8.00 to 8.30 | 7.52 to 9.00 | E (E=>60 nM and ≤10 nM) | 7.52 to 9.00 | – | – | – | – | – |
| CC1=C[C@H]2[C@@]3(O)[C@H](C)C[C@]4(OC(=O)[C@H](N)CCCCCCCCc5ccccc5)[C@H]([C@@H]3C=C(CO)C[C@]2(O)C1=O)C4(C)C [Compound K101-C136101] | 0.01 to 0.03 | 6.10 to 6.40 | 8.00 to 8.30 | 7.52 to 9.00 | 7.52 to 9.00 | – | 7.52 to 9.00 | – | – | – | – | – |
| CC1=C[C@H]2[C@@]3(O)[C@H](C)C[C@]4(OC(=O)[C@@H](N)CCCCCCCCc5ccccc5)[C@H]([C@@H]3C=C(CO)C[C@]2(O)C1=O)C4(C)C [Compound K101-C136102] | 0.001 to 0.01 | 7.22 to 7.52 | > 8.30 | 7.52 to 9.00 | > 8.30 | – | 8.00 to 8.30 | – | – | – | – | – |
| CCCCCCCCCCCCCC(=O)O[C@@H]1[C@@H](C)[C@@]2(O)[C@@H](C=C(CO)C[C@]3(O)C(=O)C(C)=C[C@@H]23)[C@@H]2C(C)(C)[C@]12OC(C)=O [Compound K103, 12-O-Tetradecanoylphorbol-13-acetate, reference compound] | – | – | – | – | – | – | – | < 0.001 | > 8.30 | > 8.30 | > 8.30 | > 8.30 |

Reference: patent US20220411362A1, “DITERPENOID COMPOUNDS THAT ACT ON PROTEIN KINASE C (PKC)” (K-Gen, Inc., priority 2019, published 2022)
